These molecules were tested against Pandemic 2009 H1N1 influenza A endonuclease (PAN domain, residues 1-204) (Influenza A virus (strain swl A/California/04/2009 H1N1), UniProt C3W5S0) (assay: Endonuclease assay (FAM/MGBNFQ fluorescent probe cleavage by PAN)). Conditions: endonuclease inhibition; 25 nM endonuclease, 50 nM probe, 37 degrees Celsius, fluorescence change over time.
Type: biochemical, influenza A virus (pandemic 2009 H1N1)
Text: A TaqMan-like oligonucleotide was used containing a 6-carboxy-fluorescein (FAM) fluorophore at the 5′-end followed by 19 nucleotides and a minor groove binding non-fluorescent quencher (MGBNFQ, Applied Biosystems) at the 3′-end. When excited by light at a wavelength of 488 nm, MGBNFQ quenches the fluorescence of FAM via fluorescence resonance energy transfer. If the endonuclease cleaves the oligonucleotide, the quencher is no longer coupled to the fluorophore, and therefore, FAM fluoresces. This assay can be performed in a high-throughput (e.g. 96 well plate) format.
The reaction mixture is set up as a master mix with the buffer, probe, and protein on ice. […] Varioskan Fluorometer (Thermo Scientific), set to an excitation of 488 nm and emission of 518 nm, is used to measure the fluorescence of the samples at 37 degrees Celsius. Fluorescence is measured at various time points (5, 120, and 240 minutes) during the 37 degrees Celsius incubation. Activity/inhibition is calculated based on the change in fluorescence over time using Prism Graphpad non-linear regression analysis.
For `O=c1[nH]c2ccccc2c(Br)c1O` [Example 2, 4-bromo-3-hydroxyquinolin-2(1H)-one], the IC50 was 53 µM.
`O=c1[nH]c2cccc(Br)c2cc1O` [Example 3, 5-bromo-3-hydroxyquinolin-2(1H)-one] showed an IC50 of 12.2 µM.
With `O=c1[nH]c2ccc(Br)cc2cc1O` [Example 4, 6-bromo-3-hydroxyquinolin-2(1H)-one] the IC50 was 7.4 µM.
With `O=c1[nH]c2cc(Br)ccc2cc1O` [Example 5, 7-bromo-3-hydroxyquinolin-2(1H)-one] the IC50 was 7.6 µM.
With `O=c1[nH]c2c(Br)cccc2cc1O` [Example 6, 8-bromo-3-hydroxyquinolin-2(1H)-one] the IC50 was 10.6 µM.
With `O=c1[nH]c2ccccc2c(-c2ccc(F)cc2)c1O` [Example 7] the IC50 was 10.8 µM.
`O=c1[nH]c2cccc(-c3ccc(F)cc3)c2cc1O` [Example 8, 5-(4-fluorophenyl)-3-hydroxyquinolin-2(1H)-one] showed an IC50 of 3.3 µM.
In the case of `O=c1[nH]c2ccc(-c3ccc(F)cc3)cc2cc1O` [Example 9, 6-(4-fluorophenyl)-3-hydroxyquinolin-2(1H)-one], the IC50 is reported as 0.56 µM.
`O=c1[nH]c2cc(-c3ccc(F)cc3)ccc2cc1O` [Example 10, 7-(4-fluorophenyl)-3-hydroxyquinolin-2(1H)-one] showed an IC50 of 0.56 µM.
With `O=c1[nH]c2c(-c3ccc(F)cc3)cccc2cc1O` [Example 11, 8-(4-fluorophenyl)-3-hydroxyquinolin-2(1H)-one] the IC50 was 4.7 µM.
`O=c1[nH]c2cc(-c3ccc(F)cc3)ccc2c(Br)c1O` [Example 12, 4-bromo-7-(4-fluorophenyl)-3-hydroxyquinolin-2(1H)-one] showed an IC50 of 1.1 µM.
For `O=c1[nH]c2ccccc2c(-c2ccccc2)c1O` [Example 13, 4-Phenyl-3-hydroxyquinolin-2(1H)-one], the IC50 was > 20 µM.
In the case of `Cc1c(O)c(=O)[nH]c2ccccc12` [Example 14, 4-Methyl-3-hydroxyquinolin-2(1H)— one], the IC50 is reported as > 100 µM.
`O=c1[nH]c2cc(-c3ccc(F)cc3)ccc2c(-c2ccccc2)c1O` [Example 15, 4-Phenyl-7-(4-fluorophenyl)-3-hydroxyquinolin-2(1H)-one] showed an IC50 of 2 µM.
`Cc1c(O)c(=O)[nH]c2cc(-c3ccc(F)cc3)ccc12` [Example 16] showed an IC50 of 13.2 µM.
